Activity calls are given as the source filed them. No cut-off for these calls is given here.
Columns and labels:
[1] = (§1) Binding affinity to recombinant HSV1 glycoprotein D (21 to 339 residues) assessed as change in intrinsic tryptophan fluorescence by spectrofluorimetric method; design: species or system Human alphaherpesvirus 1
Human alphaherpesvirus 1 [2] = assay: as §1
[3] = Binding affinity to HSV1 glycoprotein D; design: species or system Human alphaherpesvirus 1
Human alphaherpesvirus 1 [4] = assay: Antiviral activity against Herpes simplex virus 1 KOS infected in African green monkey Vero cells assessed as inhibition of plaque formation at 5 ug treated 1 hr prior to viral infection followed by compound washout and subsequent compound addition measured after 72 hrs by Giemsa staining based assay; type: functional, organism-based

| SMILES | Kd [1] [nM] | %max (Human alphaherpesvirus 1 [2]) [%] | Kd [3] [nM] | inhibition (Human alphaherpesvirus 1 [4]) |
| --- | --- | --- | --- | --- |
| CO[C@H]1O[C@H](COS(=O)(=O)O)[C@@H](O[C@@H]2O[C@@H](C(=O)O)[C@@H](O[C@H]3O[C@H](COS(=O)(=O)O)[C@@H](O[C@@H]4O[C@H](C(=O)O)[C@@H](O[C@H]5O[C@H](COS(=O)(=O)O)[C@@H](O)[C@H](O)[C@H]5NS(=O)(=O)O)[C@H](O)[C@H]4O)[C@H](OS(=O)(=O)O)[C@H]3NS(=O)(=O)O)[C@H](O)[C@H]2OS(=O)(=O)O)[C@H](O)[C@H]1NS(=O)(=O)O [FONDAPARINUX SODIUM] | 500 | -85 | – | – |
| CC1OC[C@H]2O[C@H](OC(=O)c3cc(OS(=O)(=O)O)cc(OS(=O)(=O)O)c3)[C@H](OC(=O)c3cc(OS(=O)(=O)O)cc(OS(=O)(=O)O)c3)[C@@H](OC(=O)c3cc(OS(=O)(=O)O)cc(OS(=O)(=O)O)c3)[C@@H]2O1 (stereo partly drawn) | 26 | 87 | – | – |
| O=C(O)C1=C[C@H](O)[C@@H](OS(=O)(=O)O)[C@H](O[C@H]2[C@H](O)[C@@H](NS(=O)(=O)O)[C@@H](O[C@H]3[C@H](O)[C@@H](OS(=O)(=O)O)[C@H](O[C@H]4[C@H](O)[C@@H](NS(=O)(=O)O)[C@@H](O[C@H]5[C@H](O)[C@@H](OS(=O)(=O)O)[C@H](O[C@H]6[C@H](OS(=O)(=O)O)[C@@H](NS(=O)(=O)O)[C@@H](O[C@H]7[C@H](O)[C@@H](OS(=O)(=O)O)[C@H](O[C@H]8[C@H](O)[C@@H](NS(=O)(=O)O)[C@@H](O)O[C@@H]8COS(=O)(=O)O)O[C@H]7C(=O)O)O[C@@H]6COS(=O)(=O)O)O[C@H]5C(=O)O)O[C@@H]4COS(=O)(=O)O)O[C@H]3C(=O)O)O[C@@H]2COS(=O)(=O)O)O1 | – | – | 18000 | – |
| O=C(O[C@@H]1[C@@H](OC(=O)c2cc(OS(=O)(=O)O)cc(OS(=O)(=O)O)c2)[C@H](OC(=O)c2cc(OS(=O)(=O)O)cc(OS(=O)(=O)O)c2)[C@@H](OC(=O)c2ccc(OS(=O)(=O)O)cc2OS(=O)(=O)O)[C@H](OC(=O)c2cc(OS(=O)(=O)O)cc(OS(=O)(=O)O)c2)[C@H]1OC(=O)c1cc(OS(=O)(=O)O)cc(OS(=O)(=O)O)c1)c1cc(OS(=O)(=O)O)cc(OS(=O)(=O)O)c1 | 8 | 53 | – | – |
| CCOC(=O)c1c(C)oc2cc(OCc3ccccc3)c(OCCCOc3cc(OS(=O)(=O)O)cc4oc(-c5ccc(OS(=O)(=O)O)cc5)cc(=O)c34)cc12 | 780 | -157 | – | – |
| Nc1nc2c(ncn2COCCO)c(=O)[nH]1 | – | – | – | Active |
| Cc1cc(Oc2cc3c(=O)c(OS(=O)(=O)O)c(-c4ccc(OS(=O)(=O)O)c(OS(=O)(=O)O)c4)oc3cc2OS(=O)(=O)O)c(C)cc1COc1cc(OS(=O)(=O)O)cc2oc(-c3ccc(OS(=O)(=O)O)c(OS(=O)(=O)O)c3)c(OS(=O)(=O)O)c(=O)c12 | 22 | -82 | – | – |
| O=C(OC1[C@@H](OC(=O)c2cc(OS(=O)(=O)O)cc(OS(=O)(=O)O)c2)[C@@H](OC(=O)c2ccc(OS(=O)(=O)O)cc2OS(=O)(=O)O)C(OC(=O)c2cc(OS(=O)(=O)O)cc(OS(=O)(=O)O)c2)[C@H](OC(=O)c2cc(OS(=O)(=O)O)cc(OS(=O)(=O)O)c2)[C@H]1OC(=O)c1cc(OS(=O)(=O)O)cc(OS(=O)(=O)O)c1)c1cc(OS(=O)(=O)O)cc(OS(=O)(=O)O)c1 (single isomer, unassigned) | 112 | 328 | – | – |
| O=S(=O)(O)OC[C@H]1O[C@@](COS(=O)(=O)O)(O[C@@H]2O[C@H](COS(=O)(=O)O)[C@@H](OS(=O)(=O)O)[C@H](OS(=O)(=O)O)[C@H]2OS(=O)(=O)O)[C@@H](OS(=O)(=O)O)[C@@H]1OS(=O)(=O)O | 150 | -52 | – | – |
| CCOC(=O)c1c(C)oc2cc(OCc3cccc(OS(=O)(=O)O)c3)c(OCc3oc4cc(OC)c(OS(=O)(=O)O)cc4c3C(=O)OCC)cc12 | 2220 | -112 | – | – |
